Source: paper PMC2699670 (Anesthesiology, 2009)

Tests used:
rat Nav1.4 α-subunit [1] = target: T1, rat Nav1.4 α-subunit (Rattus norvegicus, UniProt P15390); assay: whole-cell patch clamp, peak INa; assay type: cell-based
rat Nav1.4 α-subunit [2] = target: T1, rat Nav1.4 α-subunit; assay: whole-cell patch clamp, peak INa; assay type: cell-based; remark: listed apart in the source

T1 sequence (P15390 whole entry): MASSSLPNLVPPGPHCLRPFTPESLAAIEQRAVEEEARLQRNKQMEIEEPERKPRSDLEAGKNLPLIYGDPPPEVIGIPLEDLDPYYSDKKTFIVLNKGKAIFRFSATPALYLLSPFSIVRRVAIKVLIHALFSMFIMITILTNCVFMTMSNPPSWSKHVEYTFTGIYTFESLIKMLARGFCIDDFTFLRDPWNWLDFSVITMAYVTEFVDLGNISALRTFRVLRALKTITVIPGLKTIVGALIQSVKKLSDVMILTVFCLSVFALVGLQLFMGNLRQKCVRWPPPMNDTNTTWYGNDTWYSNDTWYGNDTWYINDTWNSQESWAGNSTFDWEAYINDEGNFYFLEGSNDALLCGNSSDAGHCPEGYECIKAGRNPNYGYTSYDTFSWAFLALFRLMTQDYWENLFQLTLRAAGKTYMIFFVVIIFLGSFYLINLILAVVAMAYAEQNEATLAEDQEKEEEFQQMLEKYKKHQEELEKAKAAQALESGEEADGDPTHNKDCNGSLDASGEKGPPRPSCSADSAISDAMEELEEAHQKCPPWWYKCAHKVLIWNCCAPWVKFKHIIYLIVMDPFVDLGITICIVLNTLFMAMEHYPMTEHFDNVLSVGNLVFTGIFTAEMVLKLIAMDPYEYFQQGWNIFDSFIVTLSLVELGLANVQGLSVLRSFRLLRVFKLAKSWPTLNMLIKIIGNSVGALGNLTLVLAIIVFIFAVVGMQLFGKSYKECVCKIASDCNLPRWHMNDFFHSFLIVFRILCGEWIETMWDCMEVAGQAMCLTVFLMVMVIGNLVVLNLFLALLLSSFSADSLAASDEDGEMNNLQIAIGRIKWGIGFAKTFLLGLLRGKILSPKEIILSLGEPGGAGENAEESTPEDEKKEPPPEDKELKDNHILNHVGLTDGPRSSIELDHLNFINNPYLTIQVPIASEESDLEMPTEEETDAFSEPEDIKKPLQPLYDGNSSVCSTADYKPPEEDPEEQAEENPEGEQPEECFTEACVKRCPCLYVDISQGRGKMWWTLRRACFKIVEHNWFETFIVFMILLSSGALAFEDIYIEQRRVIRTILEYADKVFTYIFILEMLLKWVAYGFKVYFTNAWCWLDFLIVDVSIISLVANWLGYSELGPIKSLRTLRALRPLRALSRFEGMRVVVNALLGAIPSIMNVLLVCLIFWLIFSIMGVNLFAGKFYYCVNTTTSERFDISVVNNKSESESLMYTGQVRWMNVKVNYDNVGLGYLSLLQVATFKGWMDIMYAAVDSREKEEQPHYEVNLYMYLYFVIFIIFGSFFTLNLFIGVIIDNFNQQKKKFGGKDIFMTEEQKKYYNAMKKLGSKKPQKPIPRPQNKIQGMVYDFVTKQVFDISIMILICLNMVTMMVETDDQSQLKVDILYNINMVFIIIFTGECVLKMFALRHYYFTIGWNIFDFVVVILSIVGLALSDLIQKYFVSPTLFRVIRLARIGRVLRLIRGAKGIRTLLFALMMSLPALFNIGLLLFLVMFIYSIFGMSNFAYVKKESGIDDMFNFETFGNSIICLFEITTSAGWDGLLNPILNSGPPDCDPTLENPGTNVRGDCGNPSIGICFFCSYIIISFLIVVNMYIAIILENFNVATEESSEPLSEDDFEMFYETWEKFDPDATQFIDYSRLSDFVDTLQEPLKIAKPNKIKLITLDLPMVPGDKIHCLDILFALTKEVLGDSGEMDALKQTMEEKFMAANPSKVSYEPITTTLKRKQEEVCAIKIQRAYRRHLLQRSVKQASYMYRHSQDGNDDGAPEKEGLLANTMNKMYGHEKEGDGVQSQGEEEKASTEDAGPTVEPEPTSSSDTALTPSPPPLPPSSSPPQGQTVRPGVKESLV

## FC(F)OC(F)(F)C(F)Cl (centres unmarked) [enflurane]
Rat Nav1.4 α-subunit [1]; read-out: % inhibition at 0.82 mM
  inhibition at 820 µM: 32 ± 6.7%

## FC(F)(F)C(Cl)Br (centres unmarked) [halothane]
Rat Nav1.4 α-subunit [1]; read-out: % inhibition at 0.42 mM
  inhibition at 420 µM: 32 ± 3.5%

## FC(F)OC(Cl)C(F)(F)F (centres unmarked) [isoflurane]
Rat Nav1.4 α-subunit [1]; read-out: % inhibition at 0.46 mM
  inhibition at 460 µM: 19 ± 1.9%
Rat Nav1.4 α-subunit [2]
  IC50: 1160 µM

## FCOC(C(F)(F)F)C(F)(F)F [sevoflurane]
Rat Nav1.4 α-subunit [1]; read-out: % inhibition at 0.44 mM
  inhibition at 440 µM: 17 ± 3.3%
